Test results published in US20240343760A1, “PEPTIDES FOR CELL-TYPE SPECIFIC TARGETING OF THE RETINA” (Oregon State University, priority 2021, published 2024).
“Also recorded” adds a separate entry of the source. Where two headings read alike, the source gives them in different places. Ends that are not written are not given here. TAMRA = 5-(and -6)-carboxytetramethylrhodamine fluorophore, conjugated to the side chain of the C-terminal Cys

Columns and labels:
hARPE19 cells = test: Cell ELISA of phage-displayed peptides on hARPE19 cells; assay type: cell-based; settings: vs empty bacteriophage control
Procedure: (§1) ARPE19 and 661w cells were seeded a day before the experiment on 96 well plates (10^4 cells/well). On day of experiment, cells were first fixed in 4% paraformaldehyde solution at room temperature for 15 minutes. This was followed by three washes with PBS and then the cells were blocked for 30 minutes at room temperature with 1% BSA in PBS. […] The wells were then washed with 0.1% TBST and individual phage clones were incubated for one hour at room temperature in blocking buffer with gentle rocking. After phage incubation, wells were washed three times with 0.1% TBST to reduce non-specific binding and eliminate weakly bound phages. Biotin-conjugated, mouse anti-M13 phage coat protein primary antibody was added (Thermo Fisher cat. #MA1-34468) at 1:5000 dilution in 0.1% TBST and incubated for 1 hour at room temperature with gentle rocking. The wells were washed three more times with 0.1% TBST and subsequently incubated with poly-HRP streptavidin secondary antibody (Thermo Fisher cat. #N200) at 1:10000 dilution in 0.1% TBST for 1 hour at room temperature. Wells were then washed three times with 0.1% TBST and 3,3′,5,5′-Tetramethylbenzidine (Thermo Fisher) was added to the wells and incubated at room temperature for 5-10 minutes and the reaction was stopped with 0.2 M Sulfuric Acid and absorbance was read at 450 nm using TECAN Infinite200 Pro spectrophotometer (Tecan Group Ltd., Switzerland).
(§2) After identifying 30 novel peptide sequences, top-performing candidates were identified that could target LNPs to the neural retina. Since bacteriophages were eluted from the entire neural retina, the candidates were pre-screened for their ability to bind to the cell of interest, the PRs. Single bacteriophage-peptides were amplified in E. coli, and a cell-based enzyme-linked immunosorbent assay (ELISA) was developed against the 661w mouse cone PR cell line and the hARPE19 cell line as a control. As expected, for most of the bacteriophage-peptide candidates, binding affinities were weaker when tested against RPE cells compared to 661w cone cells. […] However, the binding affinity, as measured by OD450, was close to 2-fold higher when binding to 661w cone cells compared to hARPE19 cells.

661w cone cells [1] = test: Cell ELISA of phage-displayed peptides on 661w cone cells; assay type: cell-based, mouse; settings: for binding affinity (OD450) 661w cone cells compared to hARPE19 cells: ratio 661w / hARPE19; for binding to 661w cone cells (cell ELISA, OD450): vs empty bacteriophage control
Procedure: as §1, §2

661w cone cells [2] = test: Cell internalization of TAMRA-labeled peptides, 661w cone cells; assay type: cell-based, mouse; settings: 661w cells, TAMRA-conjugated peptide, 30 minutes
Procedure: Approximately 50,000 cells were seeded per well of 8-well μ-Slide (Ibidi, Fitchburg, WI) and incubated with 10 nM and 50 nM TAMRA-labeled peptides for 30 minutes at 37° C. followed by washing with PBS, fixation in 4% Paraformaldehyde for 10 mins at room temperature. Cells were then washed three times, DAPI stained and cover slipped for confocal microscopy imaging. Fluorescence confocal images of cell internalization studies were captured with the same exposure settings and were analyzed for fluorescence intensity using ImageJ (version 1.45; National Institutes of Health, Bethesda, MD). First, the hARPE or 661w cells were outlined and ImageJ calculated the pixel intensity of the different cell treatments with different peptides. At least three images were analyzed for each peptide tested.
TAMRA-conjugated peptides were added to hARPE19 and 661w cells at a 10 nM and 50 nM concentration to evaluate their internalization (FIGS. 2E to 2H and 8A to 8B). After 30 minutes of incubation at 37° C., cells were fixed and DAPI stained for confocal imaging.

[3] = system: PR and RPE/choroid layers; settings: mouse, in vivo
Procedure: (§3) For subretinal injections, mice were topically administered 0.5% proparacaine, 1% tropicamide, and 2.5% phenylephrine and anesthetized with ketamine (100 mg/kg)/xylazine (10 mg/kg). To initiate the injection, 2.5% hypromellose was used to cover the eye and a 30-gauge needle was used to make an incision in the limbus. A glass coverslip was then placed over the eye to allow for visualization of the retina. Going through the scleral incision in the limbus, using a Hamilton syringe with a 33-gauge blunt needle, 1 μL PBS, peptide, or LNP-Cre were delivered to the subretinal space. A 2% fluorescein solution was added to the PBS and LNPs so retinal detachment could be confirmed. For most injections, scleral incisions in the limbus were created nasally and PBS or LNPs were delivered temporally. Intravitreal injections were performed as previously described elsewhere (25). […] For intravitreal injections 1.1 μg (1.5 μL, 741 ng/μL) was injected.
(§4) At specified time points, mouse eyes were enucleated and fixed using 4% paraformaldehyde in PBS overnight at 4° C. Eyes were cryopreserved in 30% sucrose solution for 2 hours prior to embedding in OCT media followed by cryo-sectioning and confocal imaging. Retinal cryo-sections were 12 μm thick and DAPI stained prior to confocal imaging done using TCS SP8 X (Leica Microsystems, Buffalo Grove, IL). Z-stacks (spanned 10 μm with 1 μm interval) were collected using a 40× objective, and maximum intensity projections were used for further analysis.
(§5) All confocal imaging was performed using TCS SP8 X (Leica Microsystems, Buffalo Grove, IL). Z-stacks (spanned 10 μm with 1 μm interval) were collected using a 20× or 40× objective, and maximum intensity projections were used for further analysis.
(§6) For TAMRA quantification from peptide injections, region of interest (ROI) were created for RPE/choroid and PR cell layer for mean fluorescent intensity values. Fold change measurements were compared to TAMRA-only controls. An ordinary one-way ANOVA, with Tukey's correction for multiple comparisons test was used for comparisons between groups (Prism 8 software, GraphPad Software, La Jolla, CA). Data are presented as mean±SEM. A p-value <0.05 was considered as statistically significant.

[4] = system: PR and RPE/choroid layers; test: In vivo validation with TAMRA-labelled peptides, intravitreal or subretinal injection
Procedure: as §3, §4, §5, §6

Substance | binding to hARPE19 (RPE) cells (cell ELISA, OD450) (hARPE19 cells) | binding affinity (OD450) 661w cone cells compared to hARPE19 cells (661w cone cells [1]) [fold] | binding to 661w cone cells (cell ELISA, OD450) (661w cone cells [1]) | also measured
LAFHRMP [Peptide 52] | highest affinity | ~2 | highest affinity | binding to hARPE19 (RPE) cells (cell ELISA, OD450) (hARPE19 cells; listed as MH52): significantly higher binding; binding to 661w cone cells (cell ELISA, OD450) (661w cone cells [1]; listed as MH52): high binding
SNLAAFPGGGSC (SNLAAFPGGGSC(TAMRA)) [MH43, peptide 43 with added linker; TAMRA-labelled at carboxy-terminal Cys in cell and in vivo tests] |  |  | high-binders | 
MPVAVYRGGGSC (MPVAVYRGGGSC(TAMRA)) [MH50, peptide 50 with added linker; TAMRA-labelled at carboxy-terminal Cys in cell and in vivo tests] | significantly higher binding | ~2 | high binding; also recorded: high-binders; also recorded: top 2 performing | cellular uptake compared to the negative control MH3 (661w cone cells [2]): 4.1 fold; retinal localization of TAMRA-labelled peptide (confocal) [3]: localized to PRs including the outer nuclear layer and inner/outer segments as well as RPE
DGPPRKPGGGSC (DGPPRKPGGGSC(TAMRA); not fully specified) [MH3, peptide 3 with added linker; TAMRA-labelled at carboxy-terminal Cys in cell and in vivo tests] | significantly higher binding |  | reduced binding affinity; also recorded: low-binder | retinal localization of TAMRA-labelled peptide (confocal) [4]: poor accumulation in RPE and PRs
MPVAVYR [Peptide 50] | highest affinity |  | highest affinity | 
DGPPRKP [Peptide 3] | highest affinity |  |  | 
SNLAAFP [Peptide 43] |  |  | highest affinity | 
SPALHFL [Peptide 42] |  |  | highest affinity | 
ATGPRSV [Peptide 57] | highest affinity | ~2 | high binding | binding to hARPE19 (RPE) cells (cell ELISA, OD450) (hARPE19 cells; listed as MH57): significantly higher binding
HLSSLTP [Peptide 54] | highest affinity |  | highest affinity | binding to hARPE19 (RPE) cells (cell ELISA, OD450) (hARPE19 cells; listed as MH54): significantly higher binding
SPALHFLGGGSC (SPALHFLGGGSC(TAMRA)) [MH42, peptide 42 with added linker; TAMRA-labelled at carboxy-terminal Cys in cell and in vivo tests] | significantly higher binding | ~2 | high binding; also recorded: high-binders; also recorded: top 2 performing | cellular uptake compared to the negative control MH3 (661w cone cells [2]): 1.7 fold; clearance of labelled peptide from retina [3]: ≤ 24 h; retinal localization of TAMRA-labelled peptide (confocal) [3]: localized to PRs including the outer nuclear layer and inner/outer segments as well as RPE; timepoint of maximum level of labelled peptide in retina [3]: 6 h
